Laboratory results taken from patent publication US20120136066A1, “Glomerulonephritis Treatment” (AVEXXIN AS, priority 2009, published 2012).

Legend:
IIA-sPLA2 = IIA-sPLA2 protein expression and secretion, Western blot of supernatants; format: cell-based, rat; conditions: mesangial cells, IL-1β (1 nM), FIG. 2A
Method: (§1) Quiescent cells were stimulated with either DMEM (−), or IL-1β (1 nM) in the absence (−) or presence of AKH-217 (etOH), vehicle control. • (A) Supernatants were taken for protein precipitation and precipitated proteins were separated by SDS-PAGE and subjected to a Western blot analysis using a monoclonal antibody against rat sPLA2. […] Cells were taken for RNA extraction and subjected to quantitative PCR analysis of rat IIA-sPLA2 and 18 S RNA. ΔΔCt values were calculated and results are expressed as % of maximal IL-1β-stimulated response and are means±S.D. (n=3). • (C) Cells were transfected with the sPLA2 promoter construct plus a plasmid coding for the Renilla luciferase. After transfection, cells were stimulated for 24 h with vehicle (−), IL-1β (1 nM), or IL-1β plus 10 μM of AKH-217. sPLA2 promoter activity was calculated and results are expressed as relative luciferase units (RLU) and are means±S.D. (n=3).
(§2) It has been previously shown that the cytokine-induced PGE2 formation in mesangial cells involves both sPLA2 and cPLA2 activation (Pfeilschifter et al., 1993), we then investigated the effect of the inhibitors above on sPLA2 protein and mRNA expressions. […] This effect on sPLA2 mRNA expression was due to a reducing effect on gene transcription. This was shown by a luciferase reporter gene assay that reflected sPLA2 promoter activity.

IIA-sPLA2 mRNA = IIA-sPLA2 mRNA expression, quantitative PCR; format: cell-based, rat; conditions: mesangial cells, IL-1β (1 nM), FIG. 2B
Method: as §1, §2

rat IIA-sPLA2 promoter = assay: sPLA2 promoter activity, luciferase reporter gene assay; format: cell-based; conditions: IL-1β (1 nM), 24 h, 10 μM compound, FIG. 2C
Method: as §1
It has been previously shown that the cytokine-induced PGE2 formation in mesangial cells involves both sPLA2 and cPLA2 activation (Pfeilschifter et al., 1993), we then investigated the effect of the inhibitors above on sPLA2 protein and mRNA expressions. […] This effect on sPLA2 mRNA expression was due to a reducing effect on gene transcription. This was shown by a luciferase reporter gene assay that reflected sPLA2 promoter activity. […]

[1] = tested on: rat renal mesangial cells; assay: cytokine-stimulated NO formation in mesangial cells (Griess Reaction assay); format: cell-based; conditions: IL-1β (1 nM), FIG. 3
Method: Quiescent cells were stimulated with either DMEM (−), IL-1β (1 nM; +), in the absence or presence of the indicated concentrations of AKH-217, AVX002, or AACOCF3. Supernatants were collected and taken for nitric oxide (NO) quantification by using a Griess Reaction assay. Data are expressed as μM of NO in the supernatant and are means±S.D. (n=3).
(§3) To see whether this effect is due to altered gene transcription of iNOS, luciferase reporter gene assays were performed to measure iNOS promoter activity. A 4.5 kb fragment of the rat iNOS promoter was kindly provided by Dr. K. F. Beck (pharmazentrum frankfurt).

iNOS = iNOS protein expression, Western blot; format: cell-based, rat; conditions: mesangial cells, IL-1β (1 nM), FIG. 4A
Method: (§4) Quiescent cells were stimulated with either vehicle (DMEM), IL-1β (1 nM), in the absence (−) or presence of the indicated concentrations (in μM) of AVX001 and AVX002. EtOH, vehicle control.(A) Cells were taken for protein extraction and equal amount of protein were separated by SDS-PAGE and subjected to a Western blot analysis using a polyclonal antibody against iNOS at a dilution of 1:2000. Data are representative of at least 3 independent experiments giving similar results. (B). Cells were taken for RNA extraction and subjected to quantitative PCR analysis of rat iNOS and 18 S RNA. ΔΔCt values were calculated and results are expressed as % of maximal IL-1β response and are means±S.D (n=3). • (C) Cells were transfected with the rat iNOS promoter construct plus a plasmid coding for the Renilla luciferase. After transfection, cells were stimulated with vehicle (−), IL-1β (1 nM), or IL-1β plus 10 μM of AVX001. iNOS promoter activity was calculated and results are expressed as relative luciferase units (RLU) and are means±S.D. (n=3).
as §3

rat iNOS promoter = assay: iNOS promoter activity, luciferase reporter gene assay; format: cell-based; conditions: IL-1β (1 nM), 10 μM compound, FIG. 4C
Method: as §4, §3

mesangial cells = assay: [3H]thymidine incorporation in mesangial cells (proliferation); format: cell-based, rat; conditions: 24 h; ATP 100 μM, insuline 100 ng/ml or IGF 50 ng/ml, FIGS. 5A and 5B
Method: Quiescent cells were stimulated for 24 h with vehicle (DMEM), or 100 μM of ATP in the absence (−) or presence of the indicated concentrations of AVX001 or AVX002, in the presence of [^3H]thymidine. • (B) Cells were stimulated for 24 h with insuline (100 ng/ml) or IGF (50 ng/ml) in the absence (−) or presence of 10 μM of AVX001 or AVX002, in the presence of [^3H]thymidine. Thymidine incorporated into DNA was determined and results are expressed as % of control and are means±S.D. (n=3). Glomerulonephritis is characterized in a first early phase by increased mesangial apoptosis which in a second phase is replaced by an opposite event, i.e. hyperproliferation of mesangial cells. Many previous studies have shown that quiescent mesangial cells in culture can re-enter the cell cycle when exposed to various growth factors, including PDGF, insulin, insulin-like growth factor (IGF), or extracellular nucleotides such as ATP and UTP. […] In the presence of either AKH217 or AVX002, agonist-stimulated [^3H]thymidine incorporation is reduced (FIGS. 5A and 5B). Similar data were also obtained when cells were stimulated with PDGF.

phospho-p65 (NFκB) = assay: NFκB activation, Western blot of phospho-p65; format: cell-based, rat; conditions: IL-1β (2 nM) 30 min, 10 μM compound pretreated 2 h, FIG. 6
Method: Quiescent cells were stimulated for 30 min with either vehicle (DMEM), or IL-1β (2 nM) in the absence (−) or presence (+) of AVX001 or AVX002 (10 μM, pretreated 2 h). Thereafter, cell lysates were separated by SDS-PAGE and subjected to a Western blot analysis using a polyclonal antibody against phospho-p65 (NFκB) (upper panel), HuR as a loading control (middle panel), and IκB (lower panel). Data in FIG. 6A show duplicates of one representative experiments. FIGS. 6B and C show the densitometric evaluation of NFκB and IκB bands.
NFκB activation was measured by Western blot analyses by detecting the amount of phospho-p65 which represents the active transcription factor subunit.

Row | SMILES | IIA-sPLA2 protein expression and secretion (IIA-sPLA2) | IIA-sPLA2 mRNA expression (IIA-sPLA2 mRNA) | IL-1β-stimulated sPLA2 promoter activity (rat IIA-sPLA2 promoter) | IL-1β-stimulated NO formation [1] | protein expression of iNOS induced by IL-1β (iNOS) | IL-1β-stimulated iNOS promoter activity (rat iNOS promoter) | agonist-stimulated [3H]thymidine incorporation (mesangial cells) | IL-1β-induced increase of phospho-p65 (phospho-p65 (NFκB))
1 | CC/C=C\C/C=C\C/C=C\C/C=C\CC/C=C/CSCC(=O)C(F)(F)F [AKH-217] | reduce | reduce | completely reduced | reduced in a dose-dependent manner | down-regulated | completely lost | reduced | reduced
2 | CC/C=C\C/C=C\C/C=C\C/C=C\C/C=C\CCSCC(=O)C(F)(F)F [AVX002] | – | – | – | reduced in a dose-dependent manner | down-regulated | – | reduced | –
